From PMC9295568, “Dual Inhibition of Vacuolar-ATPase and TMPRSS2 Is Required for Complete Blockade of SARS-CoV-2 Entry into Cells” (Antimicrobial Agents and Chemotherapy, 2022)
Read-outs that look alike come from different tables or passages of the source.

Key:
Assay type in all cases: cell-based
[1] = system: authentic SARS-CoV-2 (SARS-CoV-2/Canada/ON/VIDO-01/2020/Vero'76/p2); assay: microbe, parasite or virus in culture; conditions: for IC50: Severe acute respiratory syndrome coronavirus 2, Vero 76, read-out: IC50, authentic SARS-CoV-2
[2] = system: authentic SARS-CoV-2 (SARS-CoV-2/Canada/ON/VIDO-01/2020/Vero'76/p2); assay: microbe, parasite or virus in culture; conditions: for IC50: Severe acute respiratory syndrome coronavirus 2, read-out: IC50, authentic SARS-CoV-2
[3] = system: SARS-CoV-2 PsV B.1.351 (Beta); assay: microbe, parasite or virus in culture; conditions: Severe acute respiratory syndrome coronavirus 2, Vero/TMPRSS2, read-out: IC50, inhibition of PsV entry
[4] = system: SARS-CoV-2 PsV B.1.351 (Beta); assay: microbe, parasite or virus in culture; conditions: Severe acute respiratory syndrome coronavirus 2, HeLa-ACE2, read-out: IC50, inhibition of PsV entry
[5] = system: SARS-CoV-2 PsV B.1.1.529 (Omicron); assay: microbe, parasite or virus in culture; conditions: Severe acute respiratory syndrome coronavirus 2, HeLa-ACE2, read-out: IC50, inhibition of PsV entry
[6] = system: SARS-CoV-2 PsV B.1.1.529 (Omicron); assay: microbe, parasite or virus in culture; conditions: Severe acute respiratory syndrome coronavirus 2, Vero/TMPRSS2, read-out: IC50, inhibition of PsV entry
[7] = system: SARS-CoV-2 PsV B.1.1.7 (Alpha); assay: microbe, parasite or virus in culture; conditions: Severe acute respiratory syndrome coronavirus 2, Vero/TMPRSS2, read-out: IC50, inhibition of PsV entry
[8] = system: SARS-CoV-2 PsV (wild-type S protein); assay: microbe, parasite or virus in culture; conditions: for IC50: Severe acute respiratory syndrome coronavirus 2, Vero-TMPRSS2 (+TMPRSS2), WT PsV, read-out: IC50, inhibition of PsV entry
[9] = system: SARS-CoV-2 PsV (wild-type S protein); assay: microbe, parasite or virus in culture
[10] = system: SARS-CoV-2 PsV B.1.1.7 (Alpha); assay: microbe, parasite or virus in culture; conditions: Severe acute respiratory syndrome coronavirus 2, HeLa-ACE2, read-out: IC50, inhibition of PsV entry
SARS-CoV-2 PsV = system: SARS-CoV-2 PsV
[11] = Cell viability (CellTiter-Glo), HeLa-ACE2 cells; conditions: human, read-out: half-cytotoxic concentration (CC50)
Description: (§1) In order to confirm that the reduced luminescence was not related to cell toxicity, HeLa-ACE2 and Vero-TMPRSS2 cell viability upon incubation with serial dilutions of the sample compounds were tested in parallel to the neutralization assay. […] Cell viability was monitored by adding 50 μL of CellTiter-Glo reagent (Promega) to 200 μL of media containing cells. After a 10-minute incubation, 100 μL volume was transferred to a 96-well white plate (Sigma-Aldrich) to measure luminescence using a Synergy Neo2 Multi-Mode Assay Microplate Reader (Biotek Instruments). As an additional measure of cell toxicity Vero cell, lacking TMPRSS2, viability was measured using PrestoBlue (ThermoFisher). 10,000 cells/well of pre-seeded Vero cells were cocultured with the same serial dilutions of the sample compounds at 37°C for 48 h. At 48 h, 10 μL of PrestoBlue (ThermoFisher) was added to 100 μL of media containing cells. After a 2 h incubation, fluorescence was measured using a Spectromax m5e (Molecular Devices) at an excitation of 555 nm and emission of 585 nm. Data were plotted and half-cytotoxic concentration (CC50) values were calculated using Prims 9 (GraphPad).

[12] = system: endosomal acidification in HeLa-ACE2 cells; assay: Inhibition of endosomal acidification (LysoTracker Red DND-99), HeLa-ACE2 cells
Description: Inhibition of endosomal acidification was measured using LysoTracker Red DND-99 (ThermoFisher). HeLa-ACE2 and Vero-TMPRSS2 cells were prepared following the above-mentioned protocol, where 10,000 cells/well of pre-seeded cells were cocultured with the same serial dilutions of the sample compounds at 37°C for 2 h. Following this, 0.1 μM final concentration of LysoTracker Red DND-99 (ThermoFisher) was added to each well and incubated for 30 min at 37°C. The cell medium was then replaced with 100 μL of FluoroBrite DMEM (ThermoFisher). Fluorescence was measured using a Synergy Neo2 Multi-Mode Assay Microplate Reader (Biotek Instruments) while employing a Texas Red filter. Data were plotted and IC50 values were calculated using Prism 9 (GraphPad).

[13] = system: endosomal acidification in Vero cells; assay: cells; conditions: Chlorocebus sabaeus; Vero cells, 40 μM, singlet (n=1); read-out: Percent Inhibition (%) of endosomal acidification
Description: Inhibition of endosomal acidification was measured using LysoTracker Red DND-99 (ThermoFisher). […] Data were plotted using Prism 9 (GraphPad).

HeLa-ACE2 cells = assay: Cell viability (CellTiter-Glo), HeLa-ACE2 cells; conditions: same dose range as PsV assay
Description: as §1

[14] = HeLa-ACE2, concentrations up to 40 μM
[15] = HeLa-ACE2, concentrations higher than 1 μM

SMILES	IC50 [1]	IC50 [2]	IC50 [3]	IC50 [4]	IC50 [5]	IC50 [6]	IC50 [8]	IC50 [10]	inhibition of PsV entry by single compound (in words) (SARS-CoV-2 PsV)	CC50 [11]	inhibition at 40 µM [13]	further results
CN(C)C(=O)COC(=O)Cc1ccc(OC(=O)c2ccc(NC(=N)N)cc2)cc1 [Camostat]	> 100000 nM	38 nM	275 nM	> 300000 nM	> 300000 nM	> 7500 nM	252 nM	> 300000 nM	neither Camostat nor bafilomycin A1 alone fully inhibited PsV entry	–	–	IC50 [7]: 133 nM; inhibition of PsV entry (in words) ([9]; HeLa-ACE2 cells lacking TMPRSS2): unable to inhibit; IC50 ([9]; Severe acute respiratory syndrome coronavirus 2, HeLa-ACE2, read-out: IC50, inhibition of PsV entry, HeLa-ACE2 (-TMPRSS2), WT PsV): > 300 µM; IC50 ([9]; Severe acute respiratory syndrome coronavirus 2, HeLa-ACE2, read-out: IC50, inhibition of PsV entry, HeLa-ACE2 (-TMPRSS2), wild-type S PsV): > 200 µM
O=C(Nc1cc(Cl)cc(Cl)c1O)c1c(O)c(Cl)cc(Cl)c1Cl [Oxyclozanide, oxyclozanide]	–	–	–	–	–	–	–	–	–	18.7 µM	55%	effect on endosomal acidification (in words) [12, 14]: did not alter; effect on infection levels (in words) [9, 14]: did not alter
CO/C1=C\C(C)=C\[C@@H](C)[C@@H](O)[C@@H](C)C/C(C)=C/C=C/[C@H](OC)[C@@H]([C@@H](C)[C@@H](O)[C@H](C)[C@@]2(O)C[C@@H](O)[C@H](C)[C@@H](C(C)C)O2)OC1=O [bafilomycin A1]	9 nM	0.4 nM	3.4 nM	0.5 nM	0.3 nM	1.9 nM	9.6 nM	0.8 nM	neither Camostat nor bafilomycin A1 alone fully inhibited PsV entry	–	–	associated cell cytotoxicity (in words) (HeLa-ACE2 cells): without displaying any associated cell cytotoxicity; effect on SARS-CoV-2 infection titers (in words) [1]: significantly reduced; effect on SARS-CoV-2 infection titers (in words) [2]: significantly reduced; IC50 ([12]; HeLa-ACE2 cells): 0.9 nM; potency of bafilomycin A1 relative to Camostat in stopping viral entry ([8]; Vero-TMPRSS2, ratio of IC50 values): 26 fold; IC50 ([9]; Severe acute respiratory syndrome coronavirus 2, HeLa-ACE2, HeLa-ACE2 (-TMPRSS2), WT PsV, read-out: IC50, inhibition of PsV entry): 0.0004 µM
O=C(Nc1ccc([N+](=O)[O-])cc1Cl)c1cc(Cl)ccc1O [niclosamide]	–	–	–	–	–	–	–	–	–	0.4 µM	75%	endosomal acidification inhibition (in words) [12, 15]: efficient endosomal acidification inhibition; PsV infection (in words) [9, 15]: no measurable infection
